Earlier results as cited in US7799335B2, “Differential delivery of nitric oxide” (Boston Scientific Scimed, Inc., priority 2001, dated 2010).

Columns and labels:
platelet aggregation = conditions: compared with SNAP
vasodilation = conditions: compared with SNAP
endothelial cells = conditions: low levels of nitric oxide (SNP 10-50 uM); Rossig et al. 2000
[1] = test system: human aortic vascular smooth muscle cells; conditions: exogenously and endogenously produced nitric oxide, 10^−5 to 10^−3 molar; Tanner et al. 2000

Row | SMILES | inhibition of platelet aggregation (platelet aggregation) | effectiveness as vasodilator (vasodilation) | effect on TNF-alpha induced apoptosis (endothelial cells) | effect on smooth muscle cell proliferation [1]
1 | N[C@@H](CCC(=O)N[C@@H](CSN=O)C(=O)NCC(=O)O)C(=O)O [GSN70, S-nitrosoglutathione] | the opposite is true | less effective vasodilator than SNAP |  | 
2 | [N]=O [nitric oxide] |  |  | prevented TNF-alpha induced apoptosis in endothelial cells | prevented smooth muscle cell proliferation by inducing G1 phase arrest
